Source: paper PMC3466466, “Taltirelin is a superagonist at the human thyrotropin-releasing hormone receptor” (Frontiers in Endocrinology, 2012)

How the values were obtained:
[1] = target: T1, TRH-R (human TRH receptor) (Homo sapiens, UniProt P34981); test: [3H]MeTRH competition binding, intact HEK-EM […] cells; type: cell-based
T1 construct: gene TRHR; full-length human cDNA subcloned into pcDNA3.1(+)/hygromycin; stably expressed in HEK-EM 293 cells, 16,000 receptors/cell
T1 sequence (P34981 1-398): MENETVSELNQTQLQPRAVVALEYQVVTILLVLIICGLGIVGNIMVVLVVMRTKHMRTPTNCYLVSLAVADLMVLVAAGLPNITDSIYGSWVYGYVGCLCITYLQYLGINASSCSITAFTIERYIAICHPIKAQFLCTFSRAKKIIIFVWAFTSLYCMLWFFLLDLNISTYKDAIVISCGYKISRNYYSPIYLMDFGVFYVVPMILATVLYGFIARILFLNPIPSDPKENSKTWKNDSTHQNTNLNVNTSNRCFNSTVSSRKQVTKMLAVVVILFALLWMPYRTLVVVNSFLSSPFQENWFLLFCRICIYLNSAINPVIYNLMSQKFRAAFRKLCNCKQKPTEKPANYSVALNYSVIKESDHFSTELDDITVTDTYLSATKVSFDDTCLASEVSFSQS

[2] = target: T1, TRH-R (human TRH receptor); test: intracellular Ca2+ release, calcium […] dye, FLIPR; type: cell-based; conditions: read-out: EC50 for Ca signaling

CN1C(=O)C[C@@H](C(=O)N[C@@H](Cc2c[nH]cn2)C(=O)N2CCC[C@H]2C(N)=O)NC1=O [TAL, N-[[(4S)-Hexahydro-1-methyl-2,6-dioxo-4-pyrimidinyl]carbonyl]-L-histidyl-L-prolinamide]
IC50 [1]: 910 nM
EC50 [2]: 36 nM
